In brackets after ≈: the same amount, converted by molar mass. Several values for one entry are separate records, joined by “and”; a condition that tells them apart may be missing. Identical values can stand only once. Like-named read-outs stand apart in the source and are kept apart here.
Tests used:
[1] = target: T1, recombinant NgFabI protein (Neisseria gonorrhoeae, UniProt A0ACH0F547); assay: biochemical
Method: FabI activity was monitored by measuring NADH consumption. […] To initiate reactions, 50 µM NADH was added, and absorbance was monitored at 340 nm every 12 s for a total of 40 min using a Spectramax Plus 384 plate reader (Molecular Devices) at a controlled temperature of 30 °C. Data were analysed using the XLfit Microsoft Excel plugin (version 5.5). IC50 values were determined using a logistic sigmoid curve-fitting of the inhibitor dose response curves.

[2] = tested on: N. gonorrhoeae; assay: MIC determination, agar dilution (CLSI); assay type: cell-based, Neisseria gonorrhoeae; conditions: for MIC: Neisseria gonorrhoeae, read-out: Minimum inhibitory concentration; for NgMIC50: screening panel of 14 N. gonorrhoeae isolates
Source text: The 2024 WHO N. gonorrhoeae reference strains were used for quality control. Only whole MIC doubling dilutions are reported. Clinical breakpoints or the epidemiological cutoff (ECOFF, to indicate azithromycin resistance) from EUCAST (v14.0, https://www.eucast.org/clinical_breakpoints) were used to classify isolates as antimicrobial susceptible or resistant. […] Two times the standard inoculum defined by CLSI was used to establish consistent growth in untreated control samples for some strains. In vitro time-kill assays were performed according to CLSI guidelines[65] using Columbia Broth (BD Difco) supplemented with 1% IsoVitaleX Enrichment (BD). Viable bacterial counts were generated by plating 10-fold serially diluted samples on GC agar plates containing 1% IsoVitaleX Enrichment (BD).

[3] = target: T1, recombinant NgFabI protein; conditions: cited from earlier work
[4] = tested on: mouse lymphoma L5178Y TK+/− cells; assay type: cell-based; conditions: positive control, 10 µg/mL
[5] = tested on: E. coli WP2 uvrA; assay: Ames assay, E. coli strain; assay type: cell-based; conditions: without S9, positive control 500 µg/plate
Method: Ames assays were performed using four strains of Salmonella typhimurium (TA1535, TA1537, TA98 and TA100) and a single strain of E. coli (WRP2 uvrA) in the presence and absence of S9 tissue homogenate. Dose levels (µg/plate) up to 4000 were assessed for WP2 uvrA and TA98, 500 for TA1535, 250 for TA1537 and 62.5 for TA100.

[6] = HepG2 cell viability (CellTiter-Glo); assay type: cell-based; conditions: human, HepG2 cells, read-out: Cell viability, Mean (n=3)
Method: (§1) HepG2 cells (HB-8065; ATCC) cultured in DMEM (Gibco) with 5% fetal bovine serum (heat-inactivated, Sigma-Aldrich) and 1% penicillin-streptomycin (ThermoFisher), were seeded in 96-well plates (3.0 × 10^4 per well) and incubated at 37 °C and 5% CO2. […] Each treatment was assessed in triplicate. Cytotoxicity was determined using CytoTox-ONE^TM Homogenous Membrane Integrity Assay kits (Promega), and cell viability was determined using CellTiter-Glo® Luminescent Cell Viability Assay kits (Promega), each according to the manufacturer’s specifications.

[7] = tested on: HepG2 cells; assay: HepG2 cytotoxicity (CytoTox-ONE membrane integrity); assay type: cell-based, human; conditions: 24 h
Method: as §1

[8] = screening panel N. gonorrhoeae isolate A
[9] = screening panel N. gonorrhoeae isolate B
[10] = screening panel N. gonorrhoeae isolate C
[11] = screening panel N. gonorrhoeae isolate D
[12] = screening panel N. gonorrhoeae isolate E
[13] = screening panel N. gonorrhoeae isolate F
[14] = screening panel N. gonorrhoeae isolate G
[15] = screening panel N. gonorrhoeae isolate H
[16] = screening panel N. gonorrhoeae isolate I
[17] = screening panel N. gonorrhoeae isolate J
[18] = screening panel N. gonorrhoeae isolate K
[19] = screening panel N. gonorrhoeae isolate L
[20] = screening panel N. gonorrhoeae isolate M
[21] = screening panel N. gonorrhoeae isolate N

T1 sequence (A0ACH0F547 entry or part of it): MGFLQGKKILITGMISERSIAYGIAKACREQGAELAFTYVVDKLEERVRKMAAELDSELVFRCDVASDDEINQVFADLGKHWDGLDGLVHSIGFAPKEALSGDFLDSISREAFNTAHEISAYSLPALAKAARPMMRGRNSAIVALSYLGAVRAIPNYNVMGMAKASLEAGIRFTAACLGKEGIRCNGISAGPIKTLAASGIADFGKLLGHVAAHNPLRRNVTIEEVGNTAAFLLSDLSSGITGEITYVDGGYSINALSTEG

Cc1c(CN(C)C(=O)/C=C/c2cnc3c(c2)NCCC(=O)N3)oc2ccccc12 [Compound 1]
IC50 [1]: 6 nM | MIC [2, 8]: 0.25 µg/mL (≈ 0.64 µM) | MIC [2, 9]: 0.125 µg/mL (≈ 0.32 µM) | MIC [2, 10]: 0.125 µg/mL (≈ 0.32 µM) | MIC [2, 11]: 0.25 µg/mL (≈ 0.64 µM) | MIC [2, 12]: 0.125 µg/mL (≈ 0.32 µM) | MIC [2, 13]: 0.25 µg/mL (≈ 0.64 µM) | MIC [2, 14]: 0.5 µg/mL (≈ 1.28 µM) | MIC [2, 15]: 0.25 µg/mL (≈ 0.64 µM) | MIC [2, 16]: 0.125 µg/mL (≈ 0.32 µM) | MIC [2, 17]: 0.25 µg/mL (≈ 0.64 µM) | MIC [2, 18]: 0.5 µg/mL (≈ 1.28 µM) | MIC [2, 19]: 0.25 µg/mL (≈ 0.64 µM) | MIC [2, 20]: 0.125 µg/mL (≈ 0.32 µM) | MIC [2, 21]: 0.125 µg/mL (≈ 0.32 µM) | NgMIC50 [2]: 0.25 µg/mL

Cc1c(CN(C)C(=O)/C=C/c2cnc3c(c2)N[C@H](C)CC(=O)N3)oc2ccccc12 [Compound 2]
IC50 [1]: 2.4 nM | MIC [2, 8]: 0.25 µg/mL (≈ 0.618 µM) | MIC [2, 9]: 0.125 µg/mL (≈ 0.309 µM) | MIC [2, 10]: 0.125 µg/mL (≈ 0.309 µM) | MIC [2, 11]: 0.125 µg/mL (≈ 0.309 µM) | MIC [2, 12]: 0.06 µg/mL (≈ 0.148 µM) | MIC [2, 13]: 0.25 µg/mL (≈ 0.618 µM) | MIC [2, 14]: 0.25 µg/mL (≈ 0.618 µM) | MIC [2, 15]: 0.125 µg/mL (≈ 0.309 µM) | MIC [2, 16]: 0.125 µg/mL (≈ 0.309 µM) | MIC [2, 17]: 0.125 µg/mL (≈ 0.309 µM) | MIC [2, 18]: 0.5 µg/mL (≈ 1.24 µM) | MIC [2, 19]: 0.125 µg/mL (≈ 0.309 µM) | MIC [2, 20]: 0.125 µg/mL (≈ 0.309 µM) | MIC [2, 21]: 0.125 µg/mL (≈ 0.309 µM) | NgMIC50 [2]: 0.125 µg/mL

Cc1c(CN(C)C(=O)/C=C/c2cnc3c(c2)N[C@@H](C)CC(=O)N3)oc2ccccc12 [Compound 6]
IC50 [1]: 14 nM | fold less potent than its enantiomer compound 2 (NgFabI IC50) [1]: 5 fold | Minimum inhibitory concentration [2, 8]: 1 µg/mL (≈ 2.47 µM) | Minimum inhibitory concentration [2, 9]: 0.5 µg/mL (≈ 1.24 µM) | Minimum inhibitory concentration [2, 10]: 0.5 µg/mL (≈ 1.24 µM) | Minimum inhibitory concentration [2, 11]: 0.5 µg/mL (≈ 1.24 µM) | Minimum inhibitory concentration [2, 12]: 0.5 µg/mL (≈ 1.24 µM) | Minimum inhibitory concentration [2, 13]: 1 µg/mL (≈ 2.47 µM) | Minimum inhibitory concentration [2, 14]: 1 µg/mL (≈ 2.47 µM) | Minimum inhibitory concentration [2, 15]: 1 µg/mL (≈ 2.47 µM) | Minimum inhibitory concentration [2, 16]: 0.5 µg/mL (≈ 1.24 µM) | Minimum inhibitory concentration [2, 17]: 1 µg/mL (≈ 2.47 µM) | Minimum inhibitory concentration [2, 18]: 2 µg/mL (≈ 4.94 µM) | Minimum inhibitory concentration [2, 19]: 0.5 µg/mL (≈ 1.24 µM) | Minimum inhibitory concentration [2, 20]: 0.5 µg/mL (≈ 1.24 µM) | Minimum inhibitory concentration [2, 21]: 0.5 µg/mL (≈ 1.24 µM)

Cc1c(CN(C)C(=O)/C=C/c2cnc3c(c2)CCC(=O)N3)oc2ccccc12 [Debio 1452, (E)-N-methyl-N-((3-methylbenzofuran-2-yl)methyl)-3-(7-oxo-5,6,7,8-tetrahydro-1,8-naphthyridin-3-yl)acrylamide, reference compound]
IC50 ([3]; deduced from Figure 3A of reference 15): ~100 nM | Ki ([3]; seen by the reviewer in the cited work, read-out: Kiapp): 5 nM | MIC [2, 12]: 0.5 µg/mL (≈ 1.33 µM) | MIC [2, 13]: 2 µg/mL (≈ 5.33 µM) | MIC [2, 14]: 4 µg/mL (≈ 10.7 µM) | MIC [2, 15]: 2 µg/mL (≈ 5.33 µM) | MIC [2, 16]: 1 µg/mL (≈ 2.66 µM) | MIC [2, 17]: 2 µg/mL (≈ 5.33 µM) | MIC [2, 18]: 4 µg/mL (≈ 10.7 µM)

COS(C)(=O)=O [MMS, Methyl methanesulfonate]
Induced mutant frequency [4]: 421.6 | Mutant frequency per 10^6 cells [4]: 490.9 | Ames bacterial mutation assessment, Mean [5]: 168 | Colony count [5]: 174 and 161 and 169

CN(C)CCCN1c2ccccc2Sc2ccc(Cl)cc21 [chlorpromazine]
viability at 24 h, 5 µM ([6]; 5 µM): 101% | viability at 24 h, 50 µM ([6]; 50 µM): 1% | viability at 24 h, 250 µM ([6]; 250 µM): 0% | Cytotoxicity, Mean (n=3) ([7]; 5 µM): 5% | Cytotoxicity, Mean (n=3) ([7]; 50 µM): 33% | Cytotoxicity, Mean (n=3) ([7]; 250 µM): 29%
